Laboratory results taken from patent US6846636B1, “Methods and compositions for HDL holoparticle uptake receptor” (American National Red Cross, priority 1998, dated 2005).
“Also recorded” adds a separate entry of the source.

What was measured:
[1] = test system: RA/Bt2cAMP-treated F9 cells; assay: DiI-HDL uptake by fluorescence-activated cell (FAC) scanning; assay type: cell-based, mouse; conditions: DiI-HDL 1 μg/ml, 37° C., competitors preincubated, apolipoproteins and RAP 1 μM, apoE 0.25 μM, heparin 80 μM, IgGs 200 μg/ml, heparinase I 10 U/ml
Method: Untreated and RA/Bt2cAMP-treated F9 cells (1-1.5×10^5 cells/cm^2) were grown for 18 hours in serum-free medium (DMEM, ITS, penicillin, and streptomycin). After washing the cell layers with the same serum-free medium, apoE-free DiI-HDL was added to a final concentration of 1 μg/ml and incubated for 1-2 hours at 37° C., 5% CO2. For competition experiments, competitors were added in serum-free medium and incubated for 0.5 hours at 37° C., 5% CO2 prior to the addition of the DiI-HDL. After the incubation, the medium was removed, cell layers washed with serum-free medium and the cells released with a 0.5 mg/ml trypsin-0.53 mM EDTA solution (Mediatech). The cells were then pelleted by centrifugation at 180×g and resuspended in DMEM. Twice more, the cells were pelleted by centrifugation at 180×g, and resuspended in dPBS. The cells were then subjected to FAC sorting on a FACStarplus instrument (Becton Dickinson, San Jose, Calif.).
RA/Bt2cAMP-treated and -untreated F9 cells (1-1.5×10^5 cclls/cm^2) were grown for 18 h in SFM. After washing the cell layers with SFM, DiI-HDL or DIO-LDL was added to a final concentration of 1 μg/ml and incubated for 2 h at 37° C., 5% CO2. For competition experiments, competitors (HDL, HDL2, HDL3 and their corresponding apoE-free forms), LDL, oxidized LDL, VLDL, §-VLDL, Lp(a) ([…]), apoA-I (28.3 μg/ml, 1 μM), apoA-II (I 7.3 μg/ml, 1 μM), apoC-I (6.6 μg/ml, 1 μM), apoC-III (8.8 μg/ml, 1 μM), apoJ (70 μg/ml, 1 μM), ovalbumin (45 μg/ml, 1 μM), RAP (39 μg/ml, 1 μM), apoE (8.5 μg/ml, 0.25 μM), heparin (80 μM, 250 U/ml) or IgGs (200 μg/ml) were added in SFM and incubated for 45 min at 37° C., 5% CO2 prior to the addition of the fluorescent lipoproteins. After the incubation, the medium was removed, cell layers were washed with SFM and the cells were released with trypsin-EDTA-proteinase K. The cells were washed once with DMEM, twice with dPBS, then subjected to FAC scanning on a FACStar Plus instrument (Becton Dickinson, San Jose, Calif.). Plotted data are from gated cells having fluorescence intensity values greater than the autofluorescence values of 99% of unlabeled cells. For some experiments, cell layers were treated with hepaninase I (10 U/ml) for 2 h prior to the addition of the DiI-HDL.

[2] = test system: RA/Bt2cAMP-treated F9 cells; assay: Cell layer-associated [35S]-sulfate after heparinase I treatment; assay type: cell-based, mouse; conditions: heparinase I 10 U/ml for 2 h; relative to controls
[3] = test system: RA/Bt2cAMP-treated F9 cells; assay: [125I]-HDL internalization and degradation assay; assay type: cell-based, mouse; conditions: [125I]-HDL 2 μg/ml, 6.5 h at 37° C.; unlabeled HDL 80 μg/ml, RAP 1 μM, chloroquine 50 μM, anti-cubilin IgG 150 μg/ml
Method: HDL internalization and degradation assays were performed in a manner similar to LDL and apolipoprotein J internalization and degradation assays described previously (Stefansson et al., 1995; Kounnas et al., 1995). ApoE-free HDL (HDL3) was labeled with [^125I]-iodine using the iodine monochloride method (Goldstein et al., 1983). RA/Bt2cAMP-treated and -untreated F9 cells were seeded onto gelatin-coated 3.83 cm^2 wells (Corning, Corning, N.Y.) at 1.5-1.75×10^5 cells/well and allowed to grow for 18 h at 37° C., 5% CO2. Prior to the addition of [^125I]-HDL, the cells were washed with serum-free DMEM and incubated in the assay medium (DMEM, 20 mM HEPES, ITS, penicillin/streptomycin, and 1.5% BSA) containing unlabeled HDL3 (80 μg/ml), RAP (1 μM), chloroquine (50 μM) (Sigma) or BSA (10 μM) and incubated for 0.5 hours at 37° C., 5% CO2. The medium was then removed and [^125I]-HDL3 (2 μg/ml) in serum-free medium or in serum-free medium containing unlabeled HDL3 (80 μg/ml), RAP (1 μM), chloroquine (50 μM) or BSA (10 μM) was added and incubated with the cells for 6.5 h at 37° C., 5% CO2. The conditioned culture medium was treated with trichloroacetic acid (final concentration 10%) and centrifuged at 10,000×g for 10 min. The amount of radioactivity present in the supernatant was taken to represent the amount of degraded HDL (Goldstein and Brown, 1974). […] The released cells were pelleted by centrifugation at 1,000×g for 15 min and the amount of radioactivity in the cell pellet measured.
HDL internalization and degradation assays were performed as described previously for LDL and apolipoprotein J (Hammad et al., 1997; Kounnas et al., 1995; Stefansson et al., 1995a). […] The amount of radioactivity in the supernatant was taken to represent the amount of degraded HDL (Goldstein and Brown, 1974). […] The released cells were pelleted by centrifugation at 1,000×g for 15 min and the amount of radioactivity in the cell pellet was measured and taken to represent the amount of internalized HDL.

[4] = test system: visceral yolk sac endoderm; assay: DiI-HDL uptake by mouse embryo yolk sac (ex utero culture, confocal microscopy); conditions: ± S.D.; DiI-HDL 1 μg/ml 1 h; RAP, ovalbumin 1 μM; IgGs 400 μg/ml; p<0.01 vs control
Method: Embryos (8-8.5 days post-conception) were removed from timed pregnant ICR mice (Harlan Sprague Dawley, Inc.) so as to leave visceral yolk sac endoderm intact and placed in DMEM. The embryos were then incubated in DMEM containing RAP (1 μM), ovalbumin (1 μM), rabbit anti-cubilin IgG (400 μg/ml) or normal rabbit IgG (400 μg/ml) for 0.5 h at 37° C., 5% CO2. DiI-HDL was added to a final concentration of (1 μg/ml) and incubated for 1 h at 37° C., 5% CO2. The medium was removed and the embryos gently washed with dPBS and fixed with 3% paraformaldehyde for 15 min. The fixed embryos were placed in dPBS, 0.1% azide in a well slide and examined by laser scanning confocal microscopy. The intensity of yolk sac fluorescence in mouse embryos incubated with DiI-HDL in the presence of either RAP, ovalbumin, anti-cubilin IgG or control IgG was evaluated by seven people in a double blinded fashion. The assessments of relative intensity were analyzed by a nonparametric statistical test using RANK and ANOVA procedures (SAS Institute, Inc., Cary, N.C.).

With heparinase I [reference compound] as the molecule, how does the “DiI-HDL uptake in presence of competitor” value [1] read?
The value was “Neither heparin nor heparinase I pretreatment of RA/Bt2cAMP-differentiated F9 cells inhibited DiI-HDL uptake”.

What about the “DiI-HDL uptake in presence of competitor” value ([1]; listed as heparinase) of the same molecule?
Its value is “did not block HDL uptake”.

What about the “reduction of cell layer-associated [35S]-sulfate” value [2] of the same molecule?
The value was 50%.

With “apoA-I: Human apolipoprotein, major apolipoprotein component of HDL” as the molecule, how does the “DiI-HDL uptake in presence of competitor” value [1] read?
Its value is “competed effectively”.

What about the “DiI-HDL uptake in presence of competitor” value ([1]; listed as ApoAI) of the same molecule?
The value was “inhibit HDL uptake”.

Aprotinin [reference compound] was tested. Which “DiI-HDL uptake in presence of competitor” value [1] did it give?
Its value is “inability of these ligands to block HDL uptake”.

With heparin [reference compound] as the molecule, how does the “DiI-HDL uptake in presence of competitor” value [1] read?
The value was “Neither heparin nor heparinase I pretreatment of RA/Bt2cAMP-differentiated F9 cells inhibited DiI-HDL uptake; also recorded: did not block HDL uptake”.

What does the source list for “ApoAII: Human apolipoprotein, major apolipoprotein component of HDL”?
DiI-HDL uptake in presence of competitor [1]: inhibit HDL uptake; DiI-HDL uptake in presence of competitor ([1]; listed as apoA-E): competed effectively

With `CCN(CC)CCCC(C)Nc1ccnc2cc(Cl)ccc12` (centres unmarked) [chloroquine, reference compound] as the molecule, how does the “degradation of [125I]-HDL” value [3] read?
Its value is “effectively block the degradation”.

Which “DiI-HDL uptake in presence of competitor” value [1] does the source give for “apoC-1: Human apolipoprotein (TPDVSSALDKLKEFGNTLEDKARELISRIKQSELSAKMREWFSETFQKVKEKLKIDS; UniProt P02654 27-83, looked up)” here?
The value was “little or no ability to compete”.

With ApoE2: apolipoprotein component of HDL as the molecule, how does the “DiI-HDL uptake in presence of competitor” value [1] read?
The value was “inhibit HDL uptake”.

With apoj: apolipoprotein J from Quidel as the molecule, how does the “DiI-HDL uptake in presence of competitor” value [1] read?
Its value is “little or no ability to compete”.

Fucoidan [reference compound] was tested. Which “DiI-HDL uptake in presence of competitor” value [1] did it give?
The value was “inability of these ligands to block HDL uptake”.

With “apoE: Human apoE3 purchased from Calbiochem” as the molecule, how does the “DiI-HDL uptake in presence of competitor” value [1] read?
The value was “competed effectively”.

How did the “DiI-HDL uptake in presence of competitor” value [1] turn out when apoC-III: Human apolipoprotein was run?
The value was “little or no ability to compete”.

B1: ovalbumin: control protein (protein, UniProt P01012 2-386, looked up)
Ovalbumin: GSIGAASMEFCFDVFKELKVHHANENIFYCPIAIMSALAMVYLGAKDSTRTQINKVVRFDKLPGFGDSIEAQCGTSVNVHSSLRDILNQITKPNDVYSFSLASRLYAEERYPILPEYLQCVKELYRGGLEPINFQTAADQARELINSWVESQTNGIIRNVLQPSSVDSQTAMVLVNAIVFKGLWEKAFKDEDTQAMPFRVTEQESKPVQMMYQIGLFRVASMASEKMKILELPFASGTMSMLVLLPDEVSGLEQLESIINFEKLTEWTSSNVMEERKIKVYLPRMKMEEKYNLTSVLMAMGITDVFSSSANLSGISSAESLKISQAVHAAHAEINEAGREVVGSAEAGVDAASVSEEFRADHPFLFCIKHIATNAVLFFGRCVSP
For B1, which “fluorescence intensity RANK score of DiI-HDL incorporation into extraembryonic endoderm” value [4] is on record?
Its value is 4.16±0.15.
